Test results published in article PMC10008000 (Iranian Journal of Pharmaceutical Research : IJPR, 2023).

What was measured:
[1] = test system: MCF-7 breast cancer cells; assay: MTT antitumor assay, MCF-7; format: cell-based; settings: Homo sapiens, MCF7, 48 h, read-out: IC50 (μM) ± SD MCF-7
HT-29 colon cancer cells = assay: MTT antitumor assay, HT-29; format: cell-based; settings: Homo sapiens, HT-29, 48 h, read-out: IC50 (μM) ± SD HT-29
A-549 lung cancer cells = assay: MTT antitumor assay, A-549; format: cell-based; settings: Homo sapiens, A549, 48 h, read-out: IC50 (μM) ± SD A-549
[2] = MTT assay, normal fibroblast cell line HDF; format: cell-based; settings: human, HDF normal fibroblast cells
EGFR tyrosine kinase = EGFR tyrosine kinase (Homo sapiens, UniProt P00533); assay: EGFR Kinase Assay Kit / Kinase-Glo luminescence kinase assay; format: biochemical
EGFR tyrosine kinase, sequence (P00533 25-1210): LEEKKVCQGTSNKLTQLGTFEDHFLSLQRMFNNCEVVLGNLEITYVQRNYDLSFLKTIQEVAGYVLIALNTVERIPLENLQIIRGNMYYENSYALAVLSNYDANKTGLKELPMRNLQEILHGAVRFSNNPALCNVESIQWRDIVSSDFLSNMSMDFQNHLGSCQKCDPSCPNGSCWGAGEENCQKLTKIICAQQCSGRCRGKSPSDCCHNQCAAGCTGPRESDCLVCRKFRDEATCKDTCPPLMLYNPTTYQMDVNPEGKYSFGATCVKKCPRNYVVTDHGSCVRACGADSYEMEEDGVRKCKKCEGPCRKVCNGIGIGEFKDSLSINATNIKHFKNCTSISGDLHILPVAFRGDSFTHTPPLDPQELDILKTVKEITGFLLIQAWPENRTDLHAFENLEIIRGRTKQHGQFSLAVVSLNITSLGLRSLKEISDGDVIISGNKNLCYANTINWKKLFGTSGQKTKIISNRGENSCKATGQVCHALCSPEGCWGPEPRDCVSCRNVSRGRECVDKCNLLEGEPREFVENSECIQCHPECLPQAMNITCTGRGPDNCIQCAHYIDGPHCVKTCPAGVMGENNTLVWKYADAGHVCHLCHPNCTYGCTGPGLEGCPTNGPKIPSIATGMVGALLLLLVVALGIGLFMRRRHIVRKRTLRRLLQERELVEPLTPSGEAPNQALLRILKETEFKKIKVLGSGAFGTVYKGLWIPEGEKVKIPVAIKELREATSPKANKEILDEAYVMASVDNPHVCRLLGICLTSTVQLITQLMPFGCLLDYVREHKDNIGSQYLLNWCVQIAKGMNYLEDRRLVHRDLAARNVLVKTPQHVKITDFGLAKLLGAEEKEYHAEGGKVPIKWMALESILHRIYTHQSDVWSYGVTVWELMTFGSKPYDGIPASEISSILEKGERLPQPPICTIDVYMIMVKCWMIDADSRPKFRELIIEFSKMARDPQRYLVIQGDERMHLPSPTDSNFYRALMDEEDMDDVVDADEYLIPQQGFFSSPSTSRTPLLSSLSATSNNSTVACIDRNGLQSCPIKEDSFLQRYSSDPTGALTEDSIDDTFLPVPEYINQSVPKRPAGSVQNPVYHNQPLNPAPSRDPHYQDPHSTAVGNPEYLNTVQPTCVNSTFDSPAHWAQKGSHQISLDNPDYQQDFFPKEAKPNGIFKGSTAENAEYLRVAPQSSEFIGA

SMILES | IC50 [1] [µM] | IC50 (HT-29 colon cancer cells) [µM] | IC50 (A-549 lung cancer cells) [µM] | IC50 at 48 h [2] [µM] | IC50 (EGFR tyrosine kinase) [µM]
C#Cc1cccc(Nc2ncnc3cc(OCCOC)c(OCCOC)cc23)c1 [Erlotinib, reference compound] | 18.2 ± 2.6 | 28.1 ± 0.69 | 73.3 ± 1.5 | ≥ 100 | 
Cc1ccc(CNc2ccc3nc(N)nc(Nc4ccccc4)c3c2)cc1 [10d, N^6-(4-methylbenzyl)-N^4-phenylquinazoline-2,4,6-triamine] | ≥ 100 | ≥ 100 | 0.126 ± 0.019 | ≥ 100 | 45.5
COc1cccc2c1C(=O)c1c(O)c3c(c(O)c1C2=O)C[C@@](O)(C(=O)CO)C[C@@H]3O[C@H]1C[C@H](N)[C@H](O)[C@H](C)O1 [Doxorubicin, reference compound] | 4.07 ± 0.38 | 56.3 ± 0.9 | 4.3 ± 0.3 | ≥ 100 | 
Cc1ccc(C(=O)Nc2ccc3nc(N)nc(Nc4ccccc4)c3c2)cc1 [10n, N-(2-amino-4-(phenylamino)quinazolin-6-yl)-4-methylbenzamide] | ≥ 100 | ≥ 100 | ≥ 100 | ≥ 100 | 
Nc1nc(Nc2ccccc2)c2cc(NCc3ccccc3)ccc2n1 [10a, N^6-benzyl-N^4-phenylquinazoline-2,4,6-triamine] | ≥ 100 | ≥ 100 | ≥ 100 | ≥ 100 | 
Nc1nc(Nc2ccccc2)c2cc(NC(=O)c3ccc(F)cc3)ccc2n1 [10p, N-(2-amino-4-(phenylamino)quinazolin-6-yl)-4-fluorobenzamide] | ≥ 100 | ≥ 100 | ≥ 100 | ≥ 100 | 
COc1ccc(CNc2ccc3nc(N)nc(Nc4ccccc4)c3c2)cc1 [10e, N^6-(4-methoxybenzyl)-N^4-phenylquinazoline-2,4,6-triamine] | 63.5 ± 1.39 | 13.5 ± 1.89 | 15 ± 0.9 | ≥ 100 | 3.53
COc1ccc(Nc2nc(N)nc3ccc(NCc4ccccc4)cc23)cc1 [10h, N^6-benzyl-N^4-(4-methoxyphenyl) quinazoline-2,4,6-triamine] | ≥ 100 | ≥ 100 | ≥ 100 | ≥ 100 | 
Cc1ccc(Nc2nc(N)nc3ccc(NCc4ccccc4)cc23)cc1 [10g, N^6-benzyl-N^4-p-methylphenyl quinazoline-2,4,6-triamine] | ≥ 100 | ≥ 100 | ≥ 100 | ≥ 100 | 
Nc1nc(Nc2ccc(F)cc2)c2cc(NCc3ccccc3)ccc2n1 [10l, N^6-benzyl-N^4-(4-fluorophenyl) quinazoline-2,4,6-triamine] | ≥ 100 | ≥ 100 | ≥ 100 | ≥ 100 | 
